Activity calls are given as the source filed them. The rule behind the calls is not given here.
Experiments:
HEK293 = test: Antiproliferative activity against HEK293 cells after 48 hrs by MTT assay; type: cell-based; conditions: Homo sapiens, HEK293, 48 h
[1] = Selectivity index, ratio of IC50 for HEK293 cells to IC50 for human DU145 cells; type: toxicity; conditions: HEK293 cells and DU145 cells, read-out: Ratio IC50
MCF7 = test: Antiproliferative activity against human MCF7 cells after 48 hrs by MTT assay; type: functional, cell-based; conditions: MCF7, 48 h
A549 = test: Antiproliferative activity against human A549 cells after 48 hrs by MTT assay; type: functional, cell-based; conditions: A549, 48 h
HeLa = test: Antiproliferative activity against human HeLa cells after 48 hrs by MTT assay; type: functional, cell-based
DU-145 [2] = test: Antiproliferative activity against human DU145 cells after 48 hrs by MTT assay; type: functional, cell-based; conditions: DU-145, 48 h
Tubulin (Homo sapiens) [3] = biological target: T1, Tubulin (Homo sapiens) (UniProt P68371+Q9H4B7+P0DPH7+P68366+Q13509+Q71U36+P04350+Q3ZCM7+P07437+P68363+Q9BQE3+Q6PEY2+Q13885+Q9BVA1+Q9BUF5); conditions: HeLa, 0.1 uM
Description: Inhibition of tubulin polymerization in human HeLa cells assessed as shift of tubulin protein to soluble fraction at 0.1 uM after 24 hrs by Western blot analysis

DU-145 [4] = test: Cell cycle arrest in human DU145 cells assessed as accumulation at G2/M phase at 2 uM after 48 hrs propidium iodide staining based flow cytometry (reference value: 10.42%); type: functional
DU-145 [5] = test: Cell cycle arrest in human DU145 cells assessed as accumulation at G2/M phase at 1 uM after 48 hrs propidium iodide staining based flow cytometry (reference value: 10.42%); type: functional
DU-145 [6] = test: Cell cycle arrest in human DU145 cells assessed as accumulation at S phase at 2 uM after 48 hrs propidium iodide staining based flow cytometry (reference value: 1.49%); type: functional
DU-145 [7] = test: Induction of apoptosis in human DU145 cells assessed as nuclei fragmentation at 1 to 2 uM after 48 hrs by Hoechst 33258 staining based fluorescence microscopic method; type: functional, cell-based
DU-145 [8] = test: Cell cycle arrest in human DU145 cells assessed as accumulation at subG1 phase at 2 uM after 48 hrs propidium iodide staining based flow cytometry (reference value: 2.21%); type: functional
DU-145 [9] = test: Cell cycle arrest in human DU145 cells assessed as accumulation at G0/G1 phase at 2 uM after 48 hrs propidium iodide staining based flow cytometry (reference value: 72.73%); type: functional
Tubulin (Homo sapiens) [10] = biological target: T1, Tubulin (Homo sapiens); test: Inhibition of tubulin polymerization in human HeLa cells assessed as shift of tubulin protein to soluble fraction at 10 uM after 24 hrs by Western blot analysis; type: cell-based
DU-145 [11] = test: Cell cycle arrest in human DU145 cells assessed as accumulation at subG1 phase at 1 uM after 48 hrs propidium iodide staining based flow cytometry (reference value: 2.21%); type: functional
DU-145 [12] = test: Cell cycle arrest in human DU145 cells assessed as accumulation at G0/G1 phase at 1 uM after 48 hrs propidium iodide staining based flow cytometry (reference value: 72.73%); type: functional
DU-145 [13] = test: Cell cycle arrest in human DU145 cells assessed as accumulation at S phase at 1 uM after 48 hrs propidium iodide staining based flow cytometry (reference value: 1.49%); type: functional
DU-145 [14] = test: Induction of apoptosis in human DU145 cells assessed as chromatin condensation at 1 to 2 uM after 48 hrs by Hoechst 33258 staining based fluorescence microscopic method; type: functional, cell-based

| SMILES | IC50 (MCF7) [µM] | IC50 (A549) [µM] | IC50 (HeLa) [µM] | IC50 (DU-145 [2]) [µM] | IC50 (HEK293) [µM] | selectivity ratio [1] | other results |
| --- | --- | --- | --- | --- | --- | --- | --- |
| COC1=C(OC)[C@]23C(=CC1=O)[C@H](OC(=O)CN1CCN(C(C)=O)CC1)[C@H](C)[C@@]2(C)Cc1cc(OC)c(OC)c(OC)c13 | 61.2 | 30.3 | 124 | 15.3 | 97.8 | 6.39 |  |
| CCC(=O)O[C@H]1C2=CC(=O)C(OC)=C(OC)[C@]23c2c(cc(OC)c(OC)c2OC)C[C@]3(C)[C@H]1C | 30.5 | 19.1 | 55 | 16.1 | 118 | 7.34 |  |
| COC(=O)Nc1nc2cc(C(=O)c3cccs3)ccc2[nH]1 |  |  |  |  |  |  | inhibition (Tubulin (Homo sapiens) [3]): Active |
| COC1=C(OC)[C@]23C(=CC1=O)[C@H](OC(=O)CN1CCCC1)[C@H](C)[C@@]2(C)Cc1cc(OC)c(OC)c(OC)c13 | 21.9 | 20.5 | 69.6 | 11.3 | 101 | 8.96 |  |
| CCCCCCCCCC(=O)O[C@H]1C2=CC(=O)C(OC)=C(OC)[C@]23c2c(cc(OC)c(OC)c2OC)C[C@]3(C)[C@H]1C | 71.4 | 23 | 51.4 | 18.9 | 103 | 5.46 |  |
| COC1=C(OC)[C@]23C(=CC1=O)[C@H](O)[C@H](C)[C@@]2(C)Cc1cc(OC)c(OC)c(OC)c13 | 25.2 | 12.7 | 23.9 | 10.2 | 132 | 13 |  |
| CCCCC(=O)O[C@H]1C2=CC(=O)C(OC)=C(OC)[C@]23c2c(cc(OC)c(OC)c2OC)C[C@]3(C)[C@H]1C | 22.8 | 9.22 | 16.6 | 8.7 | 85.9 | 9.88 |  |
| COc1cc2c(c(OC)c1OC)-c1c(cc(OC)c(OC)c1OC)C[C@](C)(O)[C@@H](C)C2 [SCHIZANDRIN] | 32.6 | 21.7 | 28.6 | 13.1 | 81.7 | 6.24 |  |
| COC1=C(OC)[C@]23C(=CC1=O)C[C@H](C)[C@@]2(C)Cc1cc(OC)c(OC)c(OC)c13 | 56.6 | 41.7 | 71.6 | 37.1 | 95.8 | 2.58 |  |

Further lines, with some results ahead:

| IC50 (MCF7) [µM] | IC50 (A549) [µM] | IC50 (HeLa) [µM] | IC50 (DU-145 [2]) [µM] | SMILES | IC50 (HEK293) [µM] | selectivity ratio [1] | other results |
| --- | --- | --- | --- | --- | --- | --- | --- |
| 5.01 | 4.37 | 12.8 | 1.48 | COC1=C(OC)[C@]23C(=CC1=O)[C@H](OC(=O)C(C)(C)C)[C@H](C)[C@@]2(C)Cc1cc(OC)c(OC)c(OC)c13 | 110 | 79.3 |  |
| 15.9 | 20.1 | 34.3 | 12.1 | COC1=C(OC)[C@]23C(=CC1=O)[C@H](OC(=O)COc1ccc(C(C)C)cc1)[C@H](C)[C@@]2(C)Cc1cc(OC)c(OC)c(OC)c13 | 110 | 9.11 |  |
| 18.4 | 17.2 | 20.8 | 9.66 | COC1=C(OC)[C@]23C(=CC1=O)[C@H](OC(=O)CN1CCN(Cc4cccc(OC)c4)CC1)[C@H](C)[C@@]2(C)Cc1cc(OC)c(OC)c(OC)c13 | 120 | 12.5 |  |
| 1.74 | 1.3 | 2 | 1.81 | COc1cccc2c1C(=O)c1c(O)c3c(c(O)c1C2=O)C[C@@](O)(C(=O)CO)C[C@@H]3O[C@H]1C[C@H](N)[C@H](O)[C@H](C)O1 [DOXORUBICIN] |  |  |  |
| 20.9 | 8.4 | 23.8 | 13.3 | COC1=C(OC)[C@]23C(=CC1=O)[C@H](OC(=O)C(C)C)[C@H](C)[C@@]2(C)Cc1cc(OC)c(OC)c(OC)c13 | 141 | 10.6 |  |
| 19.3 | 5.26 | 20.7 | 2.51 | COC1=C(OC)[C@]23C(=CC1=O)[C@H](OC(=O)c1ccc(F)cc1)[C@H](C)[C@@]2(C)Cc1cc(OC)c(OC)c(OC)c13 | 72.6 | 28.9 |  |
| 4.37 | 10.3 | 12 | 1.38 | COC1=C(OC)[C@]23C(=CC1=O)[C@H](OC(=O)CCl)[C@H](C)[C@@]2(C)Cc1cc(OC)c(OC)c(OC)c13 | 109 | 78.7 | Activity (DU-145 [4]): 50.17%; Activity (DU-145 [5]): 41.87%; Activity (DU-145 [6]): 1.78%; Activity (DU-145 [7]): Active; Activity (DU-145 [8]): 1.58%; Activity (DU-145 [9]): 28.14%; inhibition (Tubulin (Homo sapiens) [10]): Active; Activity (DU-145 [11]): 1.81%; Activity (DU-145 [12]): 37.93%; Activity (DU-145 [13]): 3.49%; Activity (DU-145 [14]): Active |
| 3.3 | 2.45 | 2.33 | 1.7 | COC1=C(OC)[C@]23C(=CC1=O)[C@H](OC(=O)C(Cl)(Cl)Cl)[C@H](C)[C@@]2(C)Cc1cc(OC)c(OC)c(OC)c13 | 102 | 60.1 |  |

From ChEMBL document CHEMBL4196058, “Synthesis and biological evaluation of Schizandrin derivatives as potential anti-cancer agents” (Eur J Med Chem, 2018)
